Assay results from patent US20250152731A1, “ANTI-TROP2 ANTIBODY COMBINATION THERAPIES AND METHODS OF USE THEREOF” (priority 2021, published 2025).

How the values were obtained:
[1] = tested on: DNMT1, DNMT3A, and DNMT3B; experiment: Immunoblotting of DNA methyltransferases (DNMTs); type: cell-based, human; conditions: breast cancer cell lines
Description: (§1) Following treatments, cells were washed with cold PBS and lysed in 1× Laemmli buffer. The protein concentrations in the cell lysates were measured using Pierce BCA protein assay Kit (ThermoFisher). The same amount protein for each sample (20-50 μg/lane) was loaded to SDS-PAGE gel, followed by transferring proteins to a 0.2 μm nitrocellulose membrane (Bio-Rad Laboratories). Membranes were blocked with blocking buffer Blocker Casein in PBS (ThermoFisher) at room temperature for 1 hour, followed by immunoblotting with the primary antibodies in 5% BSA TBST buffer at room temperature overnight. After washing with TBST buffer, the immunoblotting membrane was then probed with the secondary antibodies with fluorescence conjugation. The immunoblots were visualized and the immunoblotting signal intensity quantitated using the Odyssey IR imaging system (Li-Cor Biosciences).

TROP2 = experiment: Immunoblotting of TROP2 protein in breast cancer cell lines; type: cell-based, human; conditions: breast cancer cell lines
Description: as §1
Five cell lines (BCX-011, BCX-010, Sum-159, BCX-010 transfected with control shRNA, and BCX-010 transfected with Zeb1 shRNA) were treated with decitabine (a DNA methyltransferase inhibitor) at 1 μM for 3 days (FIG. 1B). To knockdown Zeb1, BCX-010 cells were transduced with a lentivirus containing Zeb1 shRNA, followed by puromycin selection.
Breast cancer cell lines BCX-010CL, BCX-011CL, and SUM159 cells were treated with decitabine, azacytidine, panobinostat, vorinostat, tazemetostat at […] respectively for 3 days, followed by immunoblotting for E-cad and TROP2 with β-actin as control (FIG. 1D).
The treated cells were lysed. The cell lysate samples were loaded onto SDS-PAGE gel for the western blot. Antibodies ab-214488 and cst-3195 were used to detect TROP2 and E-cadherin respectively. β-actin was used as loading control (FIG. 1C).

[2] = tested on: BCX-010, BCX-011 and Sum-159 cells; experiment: Annexin V flow cytometry apoptosis assay; type: cell-based, human; conditions: decitabine 1 μM and/or sacituzumab govitecan 0.1 μM, three days; FIGS. 5A-5D
Description: In order to determine the effect of decitabine and/or Zeb1 knockdown treatment on sacituzumab govitecan activity, apoptosis was measured in breast cancer cell lines. BCX-010 cells (FIG. 5A and FIG. 5B), BCX-011 cells (FIG. 5C) and Sum-159 cells (FIG. 5D) were seeded in 6-cm plates, then treated with decitabine (1 μM) and/or sacituzumab govitecan (0.1 μM) for three days in an apoptosis assay. After the three day treatment, cells were stained with Annexin V. Flow cytometry was performed to sort Annexin V positive cells (apoptotic cells) (FIGS. 5A-5D). Percentage of apoptotic cells was calculated by Annexin V positive cells over total cell populations.
Cells were seeded in 6 cm plates at a density of 3×10^5 cells per well in triplicates for each treatment group. The following day, cells were treated with decitabine and SG at 1 μM and 0.1 μM respectively, or their combination. […] Using Annexin-V-FLUOS Staining Kit (Roche), cells were stained with Annexin V fluorescence and propidium iodide (PI), following manufacturer's protocol. Samples were analyzed by flow cytometry. Percentage of Annexin V positive apoptotic cells were calculated.
In apoptosis assay, cells were treated with decitabine at 1 μM, SG at 0.1 μM, or their combination for 3 days. Annexin V positive apoptotic cells were measured by flow cytometry. Percentage of apoptotic cells over total cell populations was calculated (FIG. 7D).

BCX-010 cells = experiment: Colony formation assay, BCX-010 control and Zeb1 knockdown; type: cell-based, human; conditions: BCX-010 control and Zeb1 knockdown cells; decitabine 5 nM, sacituzumab govitecan 20 nM, 14 days
Description: FIGS. 7A-7B show a colony assay of BCX-010 cells transfected with control shRNA (FIG. 7A) or Zeb1 shRNA (FIG. 7B) after treatment with vehicle, sacituzumab govitecan (20 nM), and/or decitabine (5 nM) for 14 days. After 14 days, cell colonies formed on the plates, were fixed with 10% formalin, and stained with 0.05% crystal violet. […] Annexin V positive apoptotic cells were measured by flow cytometry. Percentage of apoptotic cells over total cell populations was calculated.
In order to determine the effect of decitabine and/or Zeb1 knockdown treatment on sacituzumab govitecan activity, colony formation assays were performed in BCX-010 breast cancer cells. BCX-010 cells (control and Zeb1 knockdown) were seeded into 6-well plates at 1000 cells/well. Cells were treated with decitabine (5 nM) and/or sacituzumab govitecan ([…]) for 14 days. Culture medium with replaced with culture medium containing fresh drugs twice. After 14 days, cell colonies form on the plates were fixed with 10% formalin and stained with 0.05% crystal violet. Total colony area and colony number were quantified using ImageJ software.

Sum-159 cells = experiment: Colony formation assay, Sum-159; type: cell-based, human; conditions: sacituzumab govitecan 200 nM, decitabine 200 nM
Description: FIGS. 6A-6E show a colony assay of BCX-010 (FIGS. 6A-6B), BCX-011 (FIG. 6C-6D), and Sum-159 cells ([…]) after treatment with vehicle, sacituzumab govitecan (200 nM), and/or decitabine (200 nM) for 10 days. FIGS. 6A-6C show agar plates after 10 days of colony formation.
In order to determine the effect of decitabine treatment on sacituzumab govitecan activity, colony formation assays were performed in BCX-010 cells (FIGS. 6A-6B), BCX-011 cells (FIG. 6C-6D), and Sum-159 breast cancer cells (FIG. 6E-6F).
Cells were seeded in 6-well plates at a density of 1000 cells per well in triplicates for each treatment group. Next day, cells were treated with single drugs, or combination at the different concentrations. Culture medium was changed with fresh drugs twice a week. Cells were cultured for 3 weeks. Cell colonies were then fixed in 10% formalin and stained with 0.05% crystal violet in 25% methanol. The stained colonies were imaged and total colony area was quantitated using NIH ImageJ v.1.48 software. Effect-based Combination Index (CI) was calculated by inhibition percentage of single drug and combination treatments using Bliss combination model. CI=((EA+EB)−(EA*EB))/EAB, where EA, EB, and EAB are effects of drug A, B and combination AB inhibition percentage. Here the effect is inhibition percentage of colony formation compared to vehicle controls. […]

[3] = tested on: BCX-010CL and BCX-011CL cells; experiment: Cell survival assay of SG in TROP2-overexpressing cells; type: cell-based, human; conditions: serial dilutions, 3 days, FIG. 8B
Description: TROP2-overexpressing cells and control cells were treated with SG at concentrations in serial dilutions for 3 days. SG IC50 was calculated.
For TROP2 overexpression, breast cancer cells seeded in 6-well plates were transfected with TROP2 expression plasmid pCMV6-entry-TROP2 using Lipofectamine 3000 Kit. Two days after transfection, cells were treated with G-418 for 2-3 passages.
After G-418 selection, immunoblotting was performed to detect TROP2 expression (FIG. 8A). Next, TROP2-overexpressing cells and control cells were treated with SG at concentrations in serial dilutions for 3 days. SG IC50 was calculated (FIG. 8B).

[4] = target: T1, TROP2 (Trophoblast cell surface antigen 2) (human, UniProt P09758 27-323); experiment: immunofluorescence microscopy, SG-Alexa-488 at 2 ug/ml on BCX cells overexpressing TROP2; signal similar to that on MDA-MB-468 cells with high endogenous TROP2
T1 construct: whole, on cells; also called TACSTD2; tumor-associated calcium signal transducer 2
T1 sequence (looked up): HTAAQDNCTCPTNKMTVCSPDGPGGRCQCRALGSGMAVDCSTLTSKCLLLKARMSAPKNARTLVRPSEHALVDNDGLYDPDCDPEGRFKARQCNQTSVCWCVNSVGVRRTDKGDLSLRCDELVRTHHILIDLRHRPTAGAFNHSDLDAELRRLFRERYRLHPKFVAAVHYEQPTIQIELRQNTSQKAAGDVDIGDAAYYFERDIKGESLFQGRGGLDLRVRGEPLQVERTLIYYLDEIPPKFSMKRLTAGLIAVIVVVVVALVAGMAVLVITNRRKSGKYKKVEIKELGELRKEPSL

[5] = tested on: TROP2 overexpressing cells; experiment: Immunofluorescence of ADC binding on cell membrane; type: cell-based, human; conditions: 2 μg/ml, 2 hours, room temperature; FIG. 12A
Description: ADC drug SG was labeled with alexa fluorescent dye using Alexa Fluo 488 Conjugation Lightening Kit (Abcam, #ab236553), following the manufactory protocol. Final SG-Alexa-488 concentration was 1 μg/μl. To bind ADC to cells, cells were seeded on cover slices in 6-well plates overnight, followed by blocking with 3% BSA/PBS at room temperature for 1 hour. Then cells were incubated with SG-Alexa-488 at 2 μg/ml at room temperature for 2 hours, followed by PBS wash twice. For internalization assay, SG-Alexa-488 was added into the culture medium in the wells at 2 μg/ml for 10 min, 3 hours, and 24 hours. Cells were fixed with 4% paraformaldehyde at room temperature for 15 min, PBS wash twice. The cover slices were mounted onto slide with DAPI counterstaining. Fluorescence on cell surface and in cytoplasm was monitored using Olympus BX51 fluorescent microscope and imaged using Nuance imaging system.

[6] = target: T1, TROP2 (Trophoblast cell surface antigen …); experiment: conclusion drawn from the examples' data (immunofluorescence, cell assays)

CCc1c(C#N)c(SC(C(N)=O)c2ccccc2)nc(N2CCC(N)CC2)c1C#N (stereo not shown) [GSK-3685032]
DNMT1 protein levels [1]: decreased DNMT1 protein levels | TROP2 expression (DNMT1 specific inhibitor) (TROP2): did not upregulate TROP2 expression

sacituzumab govitecan
apoptosis (Annexin V positive cells) [2]: induced cell apoptosis in BCX-010 and Sum-159 cells | colony formation (BCX-010 cells): inhibited cell colony formation | colony formation (Sum-159 cells): inhibited cell colony formation in Sum-159 cells | cell sensitivity to SG (IC50) in TROP2-overexpressing vs control cells [3]: Overexpression of TROP2 sensitizes cells

B1: sacituzumab govitecan-Alexa-488 (antibody, V domains shown)
VH: QVQLQQSGSELKKPGASVKVSCKASGYTFTNYGMNWVKQAPGQGLKWMGWINTYTGEPTYTDDFKGRFAFSLDTSVSTAYLQISSLKADDTAVYFCARGGFGSSYWYFDVWGQGSLVTVSS
VL: DIQLTQSPSSLSASVGDRVSITCKASQDVSIAVAWYQQKPGKAPKLLIYSASYRYTGVPDRFSGSGSGTDFTLTISSLQPEDFAVYYCQQHYITPLTFGAGTKVEIK
modifications: conjugated to SN-38 (antibody drug conjugate) and labelled with Alexa Fluor 488; sites not stated
binding result [4]: binds

B2: SG ADC labeled with Alexa-Fluo-488 (conjugate)
VH: QVQLQQSGSELKKPGASVKVSCKASGYTFTNYGMNWVKQAPGQGLKWMGWINTYTGEPTYTDDFKGRFAFSLDTSVSTAYLQISSLKADDTAVYFCARGGFGSSYWYFDVWGQGSLVTVSS
VL: DIQLTQSPSSLSASVGDRVSITCKASQDVSIAVAWYQQKPGKAPKLLIYSASYRYTGVPDRFSGSGSGTDFTLTISSLQPEDFAVYYCQQHYITPLTFGAGTKVEIK
immunofluorescent signal on cell membrane, TROP2-overexpressing cells [5]: strong immunofluorescent signal on cell membrane | immunofluorescent signal on cell membrane, control cells [5]: negative signal

B3: sacituzumab govitecan (antibody, V domains shown)
VH: QVQLQQSGSELKKPGASVKVSCKASGYTFTNYGMNWVKQAPGQGLKWMGWINTYTGEPTYTDDFKGRFAFSLDTSVSTAYLQISSLKADDTAVYFCARGGFGSSYWYFDVWGQGSLVTVSS
VL: DIQLTQSPSSLSASVGDRVSITCKASQDVSIAVAWYQQKPGKAPKLLIYSASYRYTGVPDRFSGSGSGTDFTLTISSLQPEDFAVYYCQQHYITPLTFGAGTKVEIK
modifications: conjugated to SN-38 (antibody drug conjugate); sites not stated
notes: also called SG; Trodelvy
binding result [6]: binds
